Drawing on PubChem BioAssay (NCI), this text covers GI50 and TGI for eight compounds.

Common to all, as to assay: growth of human tumour cells (NCI), 48 h
The test system of experiment [1] is MOLT-4 leukemia.
Experiment [2] deals with CCRF-CEM leukemia.
Experiment [3] relates to SF-539 CNS.
For experiment [4], the system named is SNB-19 CNS.
Experiment [5] relates to U251 CNS.
For experiment [6], the system named is SK-MEL-28 melanoma.
In experiment [7] the test system is SK-MEL-5 melanoma.
For experiment [8], the system named is SF-295 CNS.
Experiment [9] has as its system MDA-MB-435.
The subject of experiment [10] is HCT-116 colon.

Molecules are shown by their SMILES.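 Step 1: Grow cells in 96-well plates. Step 2: Expose to compound for 48 hours at 5 concentrations. Step 3: Interpolate endpoints linearly; if unreached, use highest concentration. GI50 is the concentration that inhibits growth by half. TGI: total growth inhibition.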

For `Cn1ccnc1C(=O)/C=C/c1ccc(C(=O)Nc2ccc(S(F)(F)(F)(F)F)cc2)cc1`, the GI50 in [1] was 1.72 µM; in experiment [2] it was 0.738 µM; in experiment [3] it was 2.4 µM; in [4], 2.34 µM; in [5] it was 0.506 µM; in [6], > 14.3 µM. Besides, the GI50 in [7] is 0.603 µM; in experiment [8], 1.62 µM; in experiment [9], 3.04 µM; in experiment [10], 0.854 µM. The TGI is 10.1 µM in experiment [1]; > 14.3 µM in experiment [2]; 6.45 µM in experiment [3]; > 14.3 µM in experiment [4]; > 14.3 µM in [5]; > 14.3 µM in [6]. For the same compound, the TGI was 5.99 µM in [7], > 14.3 µM in [8], > 14.3 µM in experiment [9] and > 14.3 µM in experiment [10].

`Clc1ccc(/C=C/c2cc(N3CCOCC3)c3cc(Cl)c(Cl)cc3n2)cc1`: the GI50 in experiment [1] is 0.428 µM; in experiment [2], 0.302 µM; in [3] it was > 100 µM; in experiment [4], > 100 µM; in [5] it was > 100 µM; in [6], > 100 µM. The GI50 in experiment [7], in experiment [8], in experiment [9] and in experiment [10] was > 100 µM in each case. The TGI in [2] was > 51 µM; in experiment [3] it was > 100 µM; in experiment [4], > 100 µM; in experiment [5], > 100 µM; in experiment [6], > 100 µM; in experiment [7], > 100 µM. Also, the TGI in experiment [8], in experiment [9] and in experiment [10] was > 100 µM in each case.

With `Nc1ccccc1-c1ccc([N+](=O)[O-])cc1`, the GI50 was 4.28 µM in experiment [1]; 2.31 µM in experiment [2]; 3.92 µM in [3]; 24.2 µM in experiment [4]; 40.7 µM in experiment [5]; 83.5 µM in [6]. Besides, the GI50 in [7] was 2.58 µM; in [8] it was 2.18 µM; in experiment [9] it was 5.01 µM; in experiment [10] it was 3.4 µM. Besides, the TGI in experiment [1] was > 100 µM; in experiment [2], > 100 µM; in experiment [3], 63 µM; in experiment [4], > 100 µM; in experiment [5] it was > 100 µM; in [6], > 100 µM. Also, the TGI in [7] was > 100 µM; in [8], 64.8 µM; in experiment [9], > 100 µM; in [10], > 100 µM.

Consider `CC(C)c1c(C(=O)Nc2ccccc2)c(-c2ccccc2)c(-c2ccc(F)cc2)n1CC[C@@H]1CC=CC(=O)O1`, for which the GI50 in [1] is 2.62 µM; in experiment [2], 0.39 µM; in experiment [3] it was 1.61 µM; in experiment [4] it was 1.7 µM; in [5], 1.7 µM; in experiment [6], 1.69 µM. Further, the GI50 was 1.58 µM in [7], 3.28 µM in experiment [8], 1.7 µM in experiment [9] and 0.278 µM in [10]. In addition, the TGI in experiment [1] came out at 6.98 µM; in experiment [2], 2.44 µM; in [3], 3.14 µM; in [4], 3.13 µM; in [5], 3.17 µM; in experiment [6], 3.14 µM. In addition, the TGI in [7] is 2.94 µM; in experiment [8], 13.6 µM; in [9], 3.27 µM; in experiment [10] it was 1.23 µM.

For `N/C(=C\C(=O)n1nc(-c2ccccc2)cc1N)c1ccccc1`, the GI50 was 3.72 µM in experiment [1]; 1.34 µM in experiment [2]; 14.9 µM in [4]; 4.04 µM in experiment [5]; 5.84 µM in experiment [6]; 3.01 µM in experiment [7]. Besides, the GI50 in experiment [8] was 3.48 µM; in experiment [9] it was 1.19 µM; in experiment [10], 3.77 µM. Besides, the TGI in [1] was determined as 17.8 µM; in experiment [2], 13.5 µM; in [4], 81.2 µM; in experiment [5] it was 19.2 µM; in experiment [6], 32.3 µM; in [7], 12.1 µM. Besides, the TGI in experiment [8] worked out at 31.6 µM; in experiment [9] it was 3.56 µM; in experiment [10] it was 16 µM.

`CCN1/C(=C/C=C/c2n(-c3ccccc3)c3ccc(-c4nc5ccccc5s4)cc3[n+]2CC)N(c2ccccc2)c2ccc(-c3nc4ccccc4s3)cc21`: the GI50 in [1] was 1.8 µM; in experiment [2], 2.69 µM; in experiment [3], 0.854 µM; in experiment [4], 0.369 µM; in experiment [5] it was 0.274 µM; in experiment [6] it was 0.488 µM. The GI50 in experiment [7] was 0.184 µM; in [9], 1.35 µM; in experiment [10] it was 0.436 µM. Further, the TGI in [1] was > 50 µM; in experiment [2], > 50 µM; in [3], 5.75 µM; in [4] it was > 50 µM; in experiment [5] it was 1.92 µM; in experiment [6], 5.82 µM. The TGI was 1.27 µM in [7], > 50 µM in experiment [9] and > 50 µM in [10].

Take `Clc1cc2c(cc1Cl)Oc1cc(Cl)c(Cl)cc1O2`: the GI50 in experiment [1], in experiment [2], in experiment [3], in [4], in [5] and in experiment [6] was > 0.625 µM in each case. Moreover, the GI50 in experiment [7], in [9] and in experiment [10] was > 0.625 µM in each case. Also, the TGI in experiment [1], in experiment [2], in [3], in [4], in experiment [5] and in experiment [6] was > 0.625 µM in each case. For the same compound, the TGI in experiment [7], in experiment [9] and in experiment [10] was > 0.625 µM throughout.

Take `CC(C)Nc1ccc(Nc2ccccc2)cc1`: the GI50 in experiment [1] was 21.2 µM; in [2], 12.5 µM; in experiment [3] it was 5.34 µM; in experiment [4], 25.5 µM; in experiment [5], 12.8 µM; in experiment [6], 28.1 µM. Besides, the values for the GI50 in experiment [7], in experiment [9] and in experiment [10] were 11.4 µM, 15.4 µM and 14.1 µM, respectively. In addition, the TGI is > 100 µM in [1]; > 100 µM in [2]; 38.6 µM in experiment [3]; > 100 µM in experiment [4]; 32 µM in experiment [5]; 95.1 µM in experiment [6]. For the same compound, the TGI turned out to be 24.9 µM in [7], 46 µM in experiment [9] and 31.4 µM in [10].
